PMC3901432 (Bioorganic & medicinal chemistry letters, 2013)

Key:
[1] = target: human mGlu1 (Homo sapiens, UniProt Q13255); test: Calcium mobilization mGlu1 assay; assay type: cell-based; details: for LLE: ligand-lipophilicity efficiency = pIC50−cLogP; for mGlu1 antagonism (in words): up to the top concentration of 30 μM
[2] = target: CYP3A4 (Homo sapiens, UniProt P08684); test: Cytochrome P450 inhibition assay in pooled human liver microsomes; assay type: in vitro ADME
[3] = target: mGlu2 (Homo sapiens, UniProt Q14416); test: mGlu selectivity cell based functional assay; details: tested at 10 μM
[4] = target: mGlu3 (Homo sapiens, UniProt Q14832); test: mGlu selectivity cell based functional assay; details: tested at 10 μM
[5] = target: mGlu4 (Homo sapiens, UniProt Q14833); test: mGlu selectivity cell based functional assay; details: tested at 10 μM
[6] = target: mGlu6 (Homo sapiens, UniProt O15303); test: mGlu selectivity cell based functional assay; details: tested at 10 μM
[7] = target: mGlu7 (Homo sapiens, UniProt Q14831); test: mGlu selectivity cell based functional assay; details: tested at 10 μM
[8] = target: mGlu8 (Homo sapiens, UniProt O00222); test: mGlu selectivity cell based functional assay; details: tested at 10 μM

Chain of human mGlu1 (Q13255 19-1194): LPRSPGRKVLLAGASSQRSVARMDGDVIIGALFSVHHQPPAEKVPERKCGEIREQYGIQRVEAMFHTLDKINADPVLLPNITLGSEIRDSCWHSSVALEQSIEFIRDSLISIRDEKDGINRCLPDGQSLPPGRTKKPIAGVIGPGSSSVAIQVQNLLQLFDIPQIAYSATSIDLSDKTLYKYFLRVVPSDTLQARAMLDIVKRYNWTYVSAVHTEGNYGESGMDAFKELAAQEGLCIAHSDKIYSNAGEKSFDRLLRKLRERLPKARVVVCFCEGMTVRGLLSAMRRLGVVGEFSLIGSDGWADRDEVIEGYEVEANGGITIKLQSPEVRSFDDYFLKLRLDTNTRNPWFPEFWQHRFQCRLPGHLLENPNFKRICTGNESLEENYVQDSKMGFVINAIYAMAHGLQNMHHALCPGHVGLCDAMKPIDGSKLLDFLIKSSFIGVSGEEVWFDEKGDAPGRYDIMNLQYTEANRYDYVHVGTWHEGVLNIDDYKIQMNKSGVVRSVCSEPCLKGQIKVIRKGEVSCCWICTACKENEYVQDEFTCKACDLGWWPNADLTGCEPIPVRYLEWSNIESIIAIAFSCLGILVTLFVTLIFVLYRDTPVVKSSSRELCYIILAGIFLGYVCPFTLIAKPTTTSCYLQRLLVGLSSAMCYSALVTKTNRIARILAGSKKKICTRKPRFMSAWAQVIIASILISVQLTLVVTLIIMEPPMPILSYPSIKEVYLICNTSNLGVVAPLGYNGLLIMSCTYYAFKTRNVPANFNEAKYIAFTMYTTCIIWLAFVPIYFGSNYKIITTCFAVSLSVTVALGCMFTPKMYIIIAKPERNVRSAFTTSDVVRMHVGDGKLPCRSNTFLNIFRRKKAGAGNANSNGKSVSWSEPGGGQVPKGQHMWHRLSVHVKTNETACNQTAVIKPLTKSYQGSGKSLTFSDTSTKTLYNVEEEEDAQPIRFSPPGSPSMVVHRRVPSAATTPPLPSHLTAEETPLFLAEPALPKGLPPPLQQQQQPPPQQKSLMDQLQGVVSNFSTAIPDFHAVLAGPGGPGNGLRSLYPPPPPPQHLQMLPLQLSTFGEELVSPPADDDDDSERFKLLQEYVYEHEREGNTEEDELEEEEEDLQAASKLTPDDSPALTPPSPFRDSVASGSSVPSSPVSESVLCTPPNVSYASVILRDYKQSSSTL
Chain of CYP3A4 (P08684 whole entry): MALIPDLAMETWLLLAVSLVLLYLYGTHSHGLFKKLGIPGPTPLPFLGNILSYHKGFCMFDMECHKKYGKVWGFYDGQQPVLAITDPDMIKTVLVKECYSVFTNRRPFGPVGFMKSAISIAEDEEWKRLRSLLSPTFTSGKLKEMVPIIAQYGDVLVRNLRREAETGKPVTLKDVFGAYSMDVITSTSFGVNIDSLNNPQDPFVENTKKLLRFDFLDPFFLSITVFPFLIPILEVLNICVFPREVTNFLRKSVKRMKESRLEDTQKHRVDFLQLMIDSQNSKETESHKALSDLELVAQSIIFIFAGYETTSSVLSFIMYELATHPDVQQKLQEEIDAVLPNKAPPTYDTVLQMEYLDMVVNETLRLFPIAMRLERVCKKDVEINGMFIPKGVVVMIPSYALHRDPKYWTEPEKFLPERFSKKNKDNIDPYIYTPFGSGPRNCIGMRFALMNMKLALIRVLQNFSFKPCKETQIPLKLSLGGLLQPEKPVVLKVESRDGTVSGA
Chain of mGlu3 (Q14832 23-879): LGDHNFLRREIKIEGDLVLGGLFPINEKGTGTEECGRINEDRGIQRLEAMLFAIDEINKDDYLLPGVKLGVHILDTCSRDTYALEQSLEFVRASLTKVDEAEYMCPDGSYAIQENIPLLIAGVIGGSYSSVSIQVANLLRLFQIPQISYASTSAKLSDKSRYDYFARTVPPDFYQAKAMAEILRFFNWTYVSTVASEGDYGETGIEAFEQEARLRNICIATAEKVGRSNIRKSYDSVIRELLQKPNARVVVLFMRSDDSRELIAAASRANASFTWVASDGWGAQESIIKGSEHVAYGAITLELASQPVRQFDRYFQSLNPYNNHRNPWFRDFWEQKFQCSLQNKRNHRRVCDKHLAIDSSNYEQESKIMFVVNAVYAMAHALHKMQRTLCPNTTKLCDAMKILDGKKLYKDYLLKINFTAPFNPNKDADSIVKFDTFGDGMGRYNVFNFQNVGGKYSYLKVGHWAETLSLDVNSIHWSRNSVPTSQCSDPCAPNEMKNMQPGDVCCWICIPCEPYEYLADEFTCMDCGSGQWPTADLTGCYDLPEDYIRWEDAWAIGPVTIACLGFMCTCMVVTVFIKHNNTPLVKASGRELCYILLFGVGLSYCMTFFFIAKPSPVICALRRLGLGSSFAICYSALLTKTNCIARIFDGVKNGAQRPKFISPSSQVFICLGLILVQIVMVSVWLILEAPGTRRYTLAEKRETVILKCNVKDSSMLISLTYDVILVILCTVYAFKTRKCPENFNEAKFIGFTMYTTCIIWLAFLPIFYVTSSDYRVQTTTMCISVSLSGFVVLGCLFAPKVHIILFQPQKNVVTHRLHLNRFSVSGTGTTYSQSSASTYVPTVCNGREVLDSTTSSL
Chain of mGlu7 (Q14831 35-915): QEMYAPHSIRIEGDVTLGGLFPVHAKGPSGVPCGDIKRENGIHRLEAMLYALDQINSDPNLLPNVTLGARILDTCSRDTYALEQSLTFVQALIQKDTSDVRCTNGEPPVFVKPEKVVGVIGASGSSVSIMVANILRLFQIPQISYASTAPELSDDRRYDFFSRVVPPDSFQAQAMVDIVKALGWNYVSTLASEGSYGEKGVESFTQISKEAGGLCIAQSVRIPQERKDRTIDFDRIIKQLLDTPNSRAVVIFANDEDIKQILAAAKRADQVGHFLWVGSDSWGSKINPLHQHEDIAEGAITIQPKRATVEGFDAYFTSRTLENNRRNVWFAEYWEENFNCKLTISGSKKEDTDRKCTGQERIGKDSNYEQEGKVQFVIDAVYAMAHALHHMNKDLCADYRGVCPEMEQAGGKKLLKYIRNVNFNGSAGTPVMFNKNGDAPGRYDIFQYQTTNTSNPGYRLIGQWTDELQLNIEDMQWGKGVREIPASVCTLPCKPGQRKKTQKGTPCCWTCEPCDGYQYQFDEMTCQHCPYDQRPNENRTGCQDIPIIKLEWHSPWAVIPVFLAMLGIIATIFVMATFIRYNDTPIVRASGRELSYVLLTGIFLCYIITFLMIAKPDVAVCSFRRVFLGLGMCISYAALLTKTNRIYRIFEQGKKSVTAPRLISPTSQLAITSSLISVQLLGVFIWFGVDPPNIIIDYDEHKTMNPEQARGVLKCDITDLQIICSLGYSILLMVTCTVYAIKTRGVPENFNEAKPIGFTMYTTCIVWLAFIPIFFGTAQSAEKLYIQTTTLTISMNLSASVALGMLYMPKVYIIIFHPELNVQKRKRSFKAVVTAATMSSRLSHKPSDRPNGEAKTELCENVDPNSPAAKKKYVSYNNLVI
Chain of mGlu2 (Q14416 19-872): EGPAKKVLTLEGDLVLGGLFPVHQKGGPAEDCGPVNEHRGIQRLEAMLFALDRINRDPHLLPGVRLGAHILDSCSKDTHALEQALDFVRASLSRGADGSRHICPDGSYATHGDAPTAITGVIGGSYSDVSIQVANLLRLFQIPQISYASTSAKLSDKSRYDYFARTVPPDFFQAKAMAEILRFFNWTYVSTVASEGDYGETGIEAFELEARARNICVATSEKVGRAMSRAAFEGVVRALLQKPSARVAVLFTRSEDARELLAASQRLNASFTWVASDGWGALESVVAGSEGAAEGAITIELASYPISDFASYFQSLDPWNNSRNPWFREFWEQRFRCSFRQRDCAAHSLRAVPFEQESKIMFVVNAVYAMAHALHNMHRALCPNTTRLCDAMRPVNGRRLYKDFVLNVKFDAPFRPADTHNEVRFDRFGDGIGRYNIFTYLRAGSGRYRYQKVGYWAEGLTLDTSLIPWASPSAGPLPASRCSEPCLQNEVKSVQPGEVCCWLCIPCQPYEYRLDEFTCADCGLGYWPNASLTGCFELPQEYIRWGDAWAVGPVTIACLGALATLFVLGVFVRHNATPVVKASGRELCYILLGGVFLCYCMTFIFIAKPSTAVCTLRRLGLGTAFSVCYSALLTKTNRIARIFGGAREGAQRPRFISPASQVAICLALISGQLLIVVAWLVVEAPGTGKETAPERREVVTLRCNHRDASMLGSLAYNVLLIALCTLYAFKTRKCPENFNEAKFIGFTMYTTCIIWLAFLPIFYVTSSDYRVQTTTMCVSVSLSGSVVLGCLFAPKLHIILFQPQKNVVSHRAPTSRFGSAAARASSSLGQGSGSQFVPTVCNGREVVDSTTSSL

| Structure (SMILES) | LLE [1] | mGlu1 antagonism (in words) [1] | mGlu1 potency relative to 8 (fold less potent) [1] | further results |
| --- | --- | --- | --- | --- |
| O=C(N1C[C@@H]2CN(c3ccccn3)C[C@@H]2C1)C12CC3CC(CC(C3)C1)C2 [Compound 8] | 2.79 | – | – | human mGlu1 potency relative to 1 (fold more potent) [1]: greater than seven fold; CYP3A4 inhibition (in words) [2]: moderate inhibitors; activity at mGlu2 [3]: no activity; activity at mGlu3 [4]: no activity; activity at mGlu4 [5]: no activity; activity at mGlu6 [6]: very weak and marginal activity; activity at mGlu7 [7]: very weak and marginal activity; activity at mGlu8 [8]: very weak and marginal activity |
| CC(C)(C)C(=O)N1C[C@@H]2CN(c3ccccn3)C[C@@H]2C1 [Compound 9] | – | inactive | – | – |
| CC1(C(=O)N2C[C@@H]3CN(c4ccccn4)C[C@@H]3C2)CCCCC1 [Compound 14] | – | – | sixty | – |
| CC(C)(C)CC(=O)N1C[C@@H]2CN(c3ccccn3)C[C@@H]2C1 [Compound 16] | – | inactive | – | – |
| O=C(N1C[C@@H]2CN(c3nccs3)C[C@@H]2C1)C12CC3CC(CC(C3)C1)C2 [Compound 23] | – | only weak antagonists | – | – |
| O=C(N1C[C@@H]2CN(c3ncccn3)C[C@@H]2C1)C12CC3CC(CC(C3)C1)C2 [Compound 24] | – | only weak antagonists | – | – |
| O=C(N1C[C@@H]2CN(c3ccncn3)C[C@@H]2C1)C12CC3CC(CC(C3)C1)C2 [Compound 25] | – | only weak antagonists | – | – |
| O=C(N1C[C@@H]2CN(c3cnccn3)C[C@@H]2C1)C12CC3CC(CC(C3)C1)C2 [Compound 26] | 1.21 | – | eight fold | – |
| O=C(N1C[C@@H]2CN(c3cccc(F)n3)C[C@@H]2C1)C12CC3CC(CC(C3)C1)C2 [Compound 27] | 2.50 | – | equipotent | – |
| O=C(N1C[C@@H]2CN(c3ccc(F)cn3)C[C@@H]2C1)C12CC3CC(CC(C3)C1)C2 [Compound 28] | 1.88 | – | six fold | – |
| O=C(N1C[C@@H]2CN(c3ncccc3F)C[C@@H]2C1)C12CC3CC(CC(C3)C1)C2 [Compound 29] | – | – | 12 fold | – |
| N#Cc1ccccc1N1C[C@H]2CN(C(=O)C34CC5CC(CC(C5)C3)C4)C[C@H]2C1 [Compound 30] | 2.18 | – | – | – |
| N#Cc1ccncc1N1C[C@H]2CN(C(=O)C34CC5CC(CC(C5)C3)C4)C[C@H]2C1 [Compound 32] | – | moderate potency | – | – |
| N#Cc1ncccc1N1C[C@H]2CN(C(=O)C34CC5CC(CC(C5)C3)C4)C[C@H]2C1 [Compound 34] | 2.87 | moderate potency | – | – |
| O=C(N1C[C@@H]2CN(c3ccccn3)C[C@@H]2C1)N1CCC2(CCCC2)C1 [Compound 38] | 4.12 | – | three fold | activity at mGlu2 [3]: no activity; activity at mGlu3 [4]: no activity; activity at mGlu4 [5]: no activity; activity at mGlu6 [6]: very weak and marginally significant activity; activity at mGlu7 [7]: no activity; activity at mGlu8 [8]: very weak and marginally significant activity |
| O=C(N1CCC2(CCCCC2)CC1)N1C[C@@H]2CN(c3ccccn3)C[C@@H]2C1 [Compound 40] | 2.71 | – | – | – |
| C[C@@H]1CN(c2cccnc2C#N)CCN1C(=O)C12CC3CC(CC(C3)C1)C2 [VU0469650, reference compound] | – | – | – | CYP3A4 inhibition (in words) [2]: moderate inhibitors |
